The record followed here is paper PMC7438487, “Structural studies reveal flexible roof of active site responsible for ω-transaminase CrmG overcoming by-product inhibition” (Communications Biology, 2020).

This assay deals with T1, CrmG (Actinoalloteichus sp. WH1-2216-6, UniProt H8Y6N2, W223A).
T1 construct: pET28a, N-terminal His-tag and 14 additional vector residues; expressed in E. coli BL21; dimer (114 kDa by DLS)
Description: UV-vis conversion of PLP to PMP. The format is biochemical. As to conditions: 0.02 mM CrmG W223A, 0.2 mM PLP, 2 mM amino donor (L-Glu, L-Gln or L-Ala), 50 mM Tris pH 7.5, 30 °C.

Molecules are shown by their SMILES.

T1 sequence (H8Y6N2 entry or part of it W223A): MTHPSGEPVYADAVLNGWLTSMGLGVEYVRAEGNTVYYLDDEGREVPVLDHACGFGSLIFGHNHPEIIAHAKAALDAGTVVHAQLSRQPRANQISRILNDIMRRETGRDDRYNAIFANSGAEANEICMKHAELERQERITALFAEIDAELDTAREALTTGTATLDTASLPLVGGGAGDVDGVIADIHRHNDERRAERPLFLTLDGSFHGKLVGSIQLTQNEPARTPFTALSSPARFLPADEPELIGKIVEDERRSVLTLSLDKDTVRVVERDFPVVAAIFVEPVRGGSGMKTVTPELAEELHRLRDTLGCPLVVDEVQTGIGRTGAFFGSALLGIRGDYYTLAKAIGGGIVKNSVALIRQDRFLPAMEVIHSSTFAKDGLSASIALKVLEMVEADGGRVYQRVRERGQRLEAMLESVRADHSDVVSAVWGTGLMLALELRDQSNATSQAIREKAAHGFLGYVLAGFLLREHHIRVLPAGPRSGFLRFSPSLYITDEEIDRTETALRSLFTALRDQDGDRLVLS

For `Cc1ncc(COP(=O)(O)O)c(C=O)c1O` [PLP], the “UV-vis conversion of PLP to PMP” value is listed as “CrmG catalyzing PLP conversion to PMP is greatly improved by the mutation W223A”.
